# Laboratory results as given in patent US20200071310A1, “N-ARYL PYRAZOLES AS NRF2 REGULATORS” (GLAXOSMITHKLINE INTELLECTUAL PROPERTY DEVELOPMENT LIMITED, priority 2016, published 2020).
# Structures can show the parent of a compound that is named as a salt.
# Columns and labels:
# [1] = tested on: NQO1 specific enzyme activity in BEAS-2B cells; assay: BEAS-2B NQO1 MTT Assay; assay type: cell-based; conditions: Homo sapiens; NQO1 specific activity induction, BEAS-2B cells, 48 hours; read-out: EC50
# Text: NAD(P)H:quinone oxidoreductase 1 (NQO1), also called DT diaphorase, is a homodimeric FAD-containing enzyme that catalyzes obligatory NAD(P)H-dependent two-electron reductions of quinones and protects cells against the toxic and neoplastic effects of free radicals and reactive oxygen species arising from one-electron reductions. The transcription of NQO1 is finely regulated by NRF2, and thus NQO1 activity is a good marker for NRF2 activation. On day one, frozen BEAS-2B cells (ATCC) were thawed in a water bath, counted, and re-suspended at a concentration of 250,000 cells/mL. Fifty microliters of cells were plated in 384 well black clear-bottomed plates. Plates were incubated at 37° C., 5% CO2 overnight. On day two, plates were centrifuged and 50 nL of compound or controls were added to the cells. Plates were then incubated at 37° C., 5% CO2 for 48 hours. On day four, medium was aspirated from the plate and crude cell lysates were made by adding 13 uL of 1× Cell Signaling Technologies lysis buffer with 1 Complete, Mini, EDTA-free Protease Inhibitor Tablet (Roche) for each 10 mL of lysis buffer. After lysis plates were incubated for 20 minutes at room temperature. Two microliters of lysate were removed for use in Cell Titer Glo assay (Promega) and MTT cocktail was prepared (Prochaska et. al. 1998) for measurement of NQO1 activity. Fifty microliters of MTT cocktail is added to each well, plate is centrifuged, and analyzed on an Envision plate reader (Perkin Elmer) using Absorbance 570 nm label for 30 minutes. Product formation was measured kinetically and the pEC50 of NQO1 specific activity induction was calculated by plotting the change in absorbance (Delta OD/min) versus the log of compound concentration followed by 3-parameter fitting. pEC50 is the negative log of the EC50.
# [2] = target: T1, Keap1 (321-609) Kelch domain / TAMRA-labeled NRF2 peptide (ETGE motif) (Homo sapiens, UniProt Q14145); assay: NRF2-Keap1 FP Assay; assay type: binding; conditions: Keap1 (321-609) 20 nM, Tamra labeled peptide 8 nM
# T1 construct: the Kelch domain (321-609) of Keap1 is used
# T1 sequence (Q14145 321-609): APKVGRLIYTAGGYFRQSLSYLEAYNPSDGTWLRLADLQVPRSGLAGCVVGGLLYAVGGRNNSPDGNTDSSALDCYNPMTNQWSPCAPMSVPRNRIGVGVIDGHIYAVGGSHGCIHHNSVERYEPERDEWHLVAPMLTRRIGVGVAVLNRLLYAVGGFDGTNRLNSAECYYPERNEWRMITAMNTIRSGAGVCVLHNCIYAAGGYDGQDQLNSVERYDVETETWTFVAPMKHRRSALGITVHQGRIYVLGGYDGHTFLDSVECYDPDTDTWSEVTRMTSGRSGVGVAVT
# Text: One model for the NRF2-Keap1 interaction is through two binding sites in the Neh2 domain on NRF2. The two sites are referred to as the DLG binding motif (latch domain, uM affinity) and the ETGE binding motif (hinge domain, nM affinity). The Keap1 protein consists of an N-terminal region (NTR), a broad complex, tramtrack, and brick a' brac domain (BTB), an intervening region (IVR), a double glycine repeat domain (DGR or Kelch), and a C-terminal region. The DLG and ETGE motifs of NRF2's Neh2 domain bind to the Kelch domain of Keap1 at different affinities. In the Keap1 Kelch fluorescence polarization (FP) assay, a TAMRA-labeled 16mer peptide (AFFAQLQLDEETGEFL) containing the ETGE motif of NRF2 and the Kelch domain (321-609) of Keap1 is used. The assay determines if a compound interferes with the binding between Keap1 […] and the TAMRA-labeled peptide. Binding of TAMRA-labeled NRF2 peptide to Keap1 (321-609) results in a high FP signal. If a compound interferes with the binding between the peptide and the protein, it will cause the assay signal to decrease. Thus, assay signal is inversely proportional to binding inhibition.
# 100 nl of 100× compound dose response curves (serial 3-fold dilutions) in DMSO were stamped using an Echo liquid handling system (Labcyte) into 384-well low volume black assay plates (Greiner, #784076), with DMSO in columns 6 and 18. The top concentration of compound was located in columns 1 and 13. Keap1 (321-609) was diluted to 40 nM (2×) in 1× assay buffer (50 mM Tris, pH 8.0, 100 mM NaCl, 5 mM MgCl2, 1 mM DTT, 2 mM CHAPS, and 0.005% BSA) and 5 ul was added using a Multidrop Combi (Thermo Electron Corporation) equipped with a metal tip dispenser to all wells of the compound plate, except column 18. Column 18 received only 5 ul of assay buffer. Immediately, 5 uL of 16 nM (2×) of Tamra labeled peptide (AFFAQLQLDEETGEFL, 21st Century Biochemicals) was added to all wells of the plate. The plates were spun at 500 rpm for 1 min, incubated for 1 hr at room temperature, and read on an Analyst GT (Molecular Devices) equipped with excitation (530/25 nm) and emission (580/10 nm) filters designed for Tamra probes. A 561 nm dichroic mirror was also used in the Analyst. The final assay concentrations of Keap1l (321-609) and Tamra labeled peptide were 20 nM and 8 nM, respectively. Fluorescence measurements, represented as mP, were used in the transformation of the data. Compound activity was calculated based on percent inhibition, normalized against controls in the assay (Control 1 contains the Tamra peptide and Keap1 (321-609) together (0% response) and control 2 contains the Tamra peptide alone (100% response)). Data analysis was handled using the software package Abase XE (Surrey, United Kingdom. The % inhibition values were calculated by the equation:
# 100−(100*((compound response−average control 2)/(average control 1−average control2))).
# For calculation of pIC50s, Abase XE used a four parameter equation.
# IC50s<1 nM (+++++), IC50s 1 nM-10 nM (++++), IC50s 10-100 nM (+++), IC50s 100 nM-1 μM (++), IC50s 1-10 μM (+), IC50s>10 μM (−), or were not determined (ND).
EC50 [2],Compound,EC50 [1]
100 to 1000 nM,"COc1ccc(Br)cc1S(=O)(=O)N(C)Cc1cccc(-n2ncc(C(=O)O)c2[C@@H]2C[C@H]2c2cn(C)nn2)c1 (racemic) [Example 43, 1-(3-((5-bromo-2-methoxy-N-methylphenylsulfonamido)methyl)phenyl)-5-((trans)-2-(1-methyl-1H-1,2,3-triazol-4-yl)cyclopropyl)-1H-pyrazole-4-carboxylic acid]",1000 to 10000 nM
100 to 1000 nM,"COc1cc([N+](=O)[O-])ccc1S(=O)(=O)N(C)Cc1cccc(-n2ncc(C(=O)O)c2[C@@H]2C[C@H]2c2cn(C)nn2)c1 (racemic) [Example 44, 1-(3-((2-methoxy-N-methyl-4-nitrophenylsulfonamido)methyl)phenyl)-5-((trans)-2-(1-methyl-1H-1,2,3-triazol-4-yl)cyclopropyl)-1H-pyrazole-4-carboxylic acid]",1000 to 10000 nM
100 to 1000 nM,"CCOc1ccccc1S(=O)(=O)N(C)Cc1cccc(-n2ncc(C(=O)O)c2[C@@H]2C[C@H]2c2cn(C)nn2)c1 (racemic) [Example 45, 1-(3-((2-ethoxy-N-methylphenylsulfonamido)methyl)phenyl)-5-((trans)-2-(1-methyl-1H-1,2,3-triazol-4-yl)cyclopropyl)-1H-pyrazole-4-carboxylic acid]",1000 to 10000 nM
100 to 1000 nM,"CN(Cc1cccc(-n2ncc(C(=O)O)c2[C@@H]2C[C@H]2c2cn(C)nn2)c1)S(=O)(=O)c1ccccc1OC(F)(F)F (racemic) [Example 46, 5-((trans)-2-(1-methyl-1H-1,2,3-triazol-4-yl)cyclopropyl)-1-(3-((N-methyl-2-(trifluoromethoxy)phenylsulfonamido)methyl)phenyl)-1H-pyrazole-4-carboxylic acid]",1000 to 10000 nM
100 to 1000 nM,"COc1ccccc1S(=O)(=O)N(C)Cc1cccc(-n2ncc(C(=O)O)c2[C@@H]2C[C@H]2c2cn(C)nn2)c1 (racemic) [Example 47, 1-(3-((2-methoxy-N-methylphenylsulfonamido)methyl)phenyl)-5-((trans)-2-(1-methyl-1H-1,2,3-triazol-4-yl)cyclopropyl)-1H-pyrazole-4-carboxylic acid]",10 to 100 nM
100 to 1000 nM,"CN(Cc1cccc(-n2ncc(C(=O)O)c2[C@@H]2C[C@H]2c2cn(C)nn2)c1)S(=O)(=O)c1ccccc1 (racemic) [Example 48, 5-((trans)-2-(1-methyl-1H-1,2,3-triazol-4-yl)cyclopropyl)-1-(3-((N-methylphenylsulfonamido)methyl)phenyl)-1H-pyrazole-4-carboxylic acid]",1000 to 10000 nM
100 to 1000 nM,"CCCCCCN(Cc1cccc(-n2ncc(C(=O)O)c2[C@@H]2C[C@H]2c2cn(C)nn2)c1)S(=O)(=O)c1ccccc1Oc1ccccc1 (racemic) [Example 49, 1-(3-((N-hexyl-2-phenoxyphenylsulfonamido)methyl)phenyl)-5-((trans)-2-(1-methyl-1H-1,2,3-triazol-4-yl)cyclopropyl)-1H-pyrazole-4-carboxylic acid]",100 to 1000 nM
100 to 1000 nM,"CCCN(Cc1cccc(-n2ncc(C(=O)O)c2[C@@H]2C[C@H]2c2cn(C)nn2)c1)S(=O)(=O)c1ccccc1C (racemic) [Example 50, 5-((trans)-2-(1-methyl-1H-1,2,3-triazol-4-yl)cyclopropyl)-1-(3-((2-methyl-N-propylphenylsulfonamido)methyl)phenyl)-1H-pyrazole-4-carboxylic acid]",10 to 100 nM
100 to 1000 nM,"CN(Cc1cccc(-n2ncc(C(=O)O)c2[C@@H]2C[C@H]2c2cn(C)nn2)c1)S(=O)(=O)c1cccc2cccnc12 (racemic) [Example 51, 5-((trans)-2-(1-methyl-1H-1,2,3-triazol-4-yl)cyclopropyl)-1-(3-((N-methylquinoline-8-sulfonamido)methyl)phenyl)-1H-pyrazole-4-carboxylic acid]",100 to 1000 nM
100 to 1000 nM,"COc1ccccc1S(=O)(=O)NCc1cccc(-n2ncc(C(=O)O)c2[C@@H]2C[C@H]2c2cn(C)nn2)c1 (racemic) [Example 52, 1-(3-((2-methoxyphenylsulfonamido)methyl)phenyl)-5-((trans)-2-(1-methyl-1H-1,2,3-triazol-4-yl)cyclopropyl)-1H-pyrazole-4-carboxylic acid]",100 to 1000 nM
1000 to 10000 nM,"COc1ccccc1S(=O)(=O)N(Cc1cccc(-n2ncc(C(=O)O)c2[C@@H]2C[C@H]2c2cn(C)nn2)c1)C1CC1 (racemic) [Example 53, 1-(3-((N-cyclopropyl-2-methoxyphenylsulfonamido)methyl)phenyl)-5-((trans)-2-(1-methyl-1H-1,2,3-triazol-4-yl)cyclopropyl)-1H-pyrazole-4-carboxylic acid]",100 to 1000 nM
100 to 1000 nM,"CCOc1ccc(Br)cc1CN(C)Cc1cccc(-n2ncc(C(=O)O)c2[C@@H]2C[C@H]2c2cn(C)nn2)c1 (racemic) [Example 54, 1-(3-(((5-bromo-2-ethoxybenzyl)(methyl)amino)methyl)phenyl)-5-((trans)-2-(1-methyl-1H-1,2,3-triazol-4-yl)cyclopropyl)-1H-pyrazole-4-carboxylic acid trifluoroacetate]",100 to 1000 nM
1000 to 10000 nM,CCCCCCN(Cc1cccc(-n2ncc(C(=O)O)c2[C@@H]2C[C@H]2c2cnn(C)c2)c1)S(=O)(=O)c1ccccc1C (racemic) [Example 56],100 to 1000 nM
100 to 1000 nM,"Cc1cc([C@@H]2C[C@H]2c2c(C(=O)O)cnn2-c2cccc(CN3C[C@@H](C)Cc4cc(C(F)(F)F)ccc4S3(=O)=O)c2)on1 (racemic) [Example 57, 1-(3-(((S)-4-Methyl-1,1-dioxido-7-(trifluoromethyl)-4,5-dihydrobenzo[f][1,2]thiazepin-2(3H)-yl)methyl)phenyl)-5-(trans-2-(3-methylisoxazol-5-yl)cyclopropyl)-1H-pyrazole-4-carboxylic acid]",100 to 1000 nM
10 to 100 nM,"CCCCCCN(Cc1cccc(-n2ncc(C(=O)O)c2[C@@H]2C[C@H]2c2cn(C)nn2)c1)S(=O)(=O)c1ccc(Oc2ccccc2)cc1 (relative stereo) [Example 36, 1-(3-((N-hexyl-4-phenoxyphenylsulfonamido)methyl)phenyl)-5-((trans)-2-(1-methyl-1H-1,2,3-triazol-4-yl)-cyclopropyl)-1H-pyrazole-4-carboxylic acid]",100 to 1000 nM
